We go through one compound from paper PMC11433535 (Life, 2024).

The structures appear in SMILES notation. Converted amounts (≈) assume the structure as drawn.

A short description of data set [1]: in vitro. The settings on record: fathead minnow (Pimephales promelas). The data set is classed as cell-based. On the procedure: In brief, 96-well plates were seeded with the EPC cells at a density of 2 × 10^4 cells/well and incubated for 24 h at 25 °C. The growth medium was then replaced with acyclovir-containing medium at concentrations of 3200 µM, 1600 µM, 800 µM, 400 µM, 200 µM, 100 µM, and 50 µM.

Data set [2] relates to European catfish virus (ECV). Put plainly: Endpoint virus titration (TCID50/mL) in EPC cells, ECV. Format: cell-based. The settings on record: 800 µM acyclovir, 10 days, vs control. On the procedure:
(§1) Epithelioma Papulosum Cyprini (EPC; ATCC CRL-2872) cells were grown and handled as described in detail previously. IcHV-2 originates from Italy, while the ECV strain (14612/2012) was isolated from the brown bullhead in Hungary. The Frog Virus 3 strain Granoff (FV3, ATCC VR-567) was originally isolated from a leopard frog (Lithobates pipiens) in the USA in 1965 [38] and was propagated on various fish and reptilian cell lines before it was added to our collection by courtesy of Rachel Marschang (University of Hohenheim, Stuttgart, Germany). All three viruses were cultivated in the EPC cell line at 25 °C. The tissue culture infectious dose (TCID50/mL) was calculated by the Reed and Muench method.
(§2) The EPC cells were seeded into 96-well plates (2 × 10^4 cells/well) and incubated overnight at 25 °C. […] The titers were read after 10 days of incubation at 25 °C.

For data set [3], the system named is Ictalurid herpesvirus 2 (IcHV-2). The data set can be described thus: Endpoint virus titration (TCID50/mL) in EPC cells, IcHV-2. Format: cell-based. The settings on record: 800 µM acyclovir, 10 days, vs control. On the procedure: as §1, §2
The test system of data set [4] is Frog virus 3 (FV3). Put plainly: Endpoint virus titration (TCID50/mL) in EPC cells, FV3. The data set is classed as cell-based. The following applies: 800 µM acyclovir, 10 days, vs control. On the procedure:
as §1, §2

Data set [5] relates to European catfish virus (ECV). The data set can be described thus: qPCR of viral DNA load in infected EPC cells, ECV. Format: cell-based. The following applies: 800 µM acyclovir, MOI 0.05, 48 h, normalized to beta-actin. On the procedure:
(§3) The EPC cells were also seeded in 24-well plates (2 × 10^5 cells/well) and incubated overnight at 25 °C. […] The plates were incubated for 48 h at 25 °C. Afterwards, the plates were frozen at −20 °C, followed by nucleic acid extraction and qPCR analysis.
(§4) Extraction of viral DNA was carried out with the Viral Nucleic Acid Extraction Kit II (Geneaid, New Taipei City, China) according to the manufacturer’s instructions. The extracted DNA was stored at −20 °C. Quantitative PCRs (qPCRs) were used to determine the relative amount of viral DNA in the treated and control groups. The qPCRs were performed in a Bio-Rad® Real-Time PCR System instrument (Bio-Rad, Hercules, CA, USA) using the SensiFast^TM SYBR Hi-ROX Kit (Bioline, London, UK). The PCR mixture contained 10 µL of 2xSensifast SYBR mix, 0.8 µL of forward and reverse primers, 6.4 µL pf distilled water, and 2 µL of the target DNA. The final 20 µL mixture was used in a program that included an initial denaturing step at 95 °C for 3 min, followed by 40 cycles of 95 °C for 5 s and either 65 °C or 72 °C for 30 s. All the qPCRs were performed in duplicate, and the beta-actin gene of the EPC cells was used as an internal standard. The resulting qPCR data were analyzed by the Bio-Rad CFX Maestro Software. During the experiment, ranavirus major capsid protein forward and reverse primers were used for both the ECV and FV3 viruses. […]

The test system of data set [6] is Ictalurid herpesvirus 2 (IcHV-2). The data set can be described thus: qPCR of viral DNA load in infected EPC cells, IcHV-2. The settings on record: 800 µM acyclovir, MOI 0.05, 48 h, normalized to beta-actin. Format: cell-based. On the procedure: as §3, §4
For orientation: Real-time PCR tracks product formation cycle by cycle.

Data set [7] concerns Frog virus 3 (FV3). The data set can be described thus: qPCR of viral DNA load in infected EPC cells, FV3. The data set is classed as cell-based. The following applies: 800 µM acyclovir, MOI 0.05, 48 h, normalized to beta-actin. On the procedure:
as §3, §4

Data set [8] in a line: Solubility of acyclovir in the cell culture medium. The settings on record: fully supplemented EMEM cell culture medium, crystallization observed at 3200 µM. The data set is classed as physicochemical. On the procedure:
The following concentrations were prepared for the experiments: 3200 µM, 1600 µM, 800 µM, 400 µM, 200 µM, 100 µM, and 50 µM.

Data set [9] relates to CyHV-3. The following applies: 222.02 and 444.04 µM acyclovir; cited from earlier work.
For data set [10], the system named is IcHV-1. The settings on record: 10 µM acyclovir, BB cells; cited from earlier work.

In general, viability refers to a read-out of living cells in per cent, often relative to untreated cells. As usually defined, the solubility is the dissolved amount per volume that the medium holds. A lower solubility goes with a poorly soluble substance. Take `Nc1nc2c(ncn2COCCO)c(=O)[nH]1` [acyclovir]: in data set [1], the viability at 3 days, 50 µM turned out to be 113 ± 1.92%; the viability at 3 days, 100 µM stood at 105 ± 1.48%; the viability at 3 days, 200 µM came to 111 ± 2.27%; the viability at 3 days, 400 µM was 110 ± 3.45%. In data set [1], the viability at 3 days, 800 µM stood at 103 ± 1.41%; the viability at 3 days, 1600 µM worked out at 94.3 ± 1.47%; the viability at 3 days, 3200 µM was determined as 103 ± 1.58%. Also, the “Decrease of viral load (TCID50/mL titer)” value in [2] was 2500 fold. Besides, the “Decrease of viral load (TCID50/mL titer)” value in [3] is reported as 30 fold. Further, the “Decrease of viral load (TCID50/mL titer)” value in data set [4] is listed as 11 fold. Besides, the “Reduction of viral DNA load (qPCR)” value in data set [5] is on record as 10^5 fold. Also, the “Reduction of viral DNA load (qPCR)” value in [6] was 10^4 fold. Further, the “Reduction of viral DNA load (qPCR)” value in data set [7] is reported as 10^3 fold. For the same compound, in [8], the solubility was 3.2 mM (≈ 721 µg/mL). In addition, the “Reduction (CyHV-3)” value in data set [9] was 98%. Moreover, the “Reduction of plaque number” value in [10] was 99%.
